This note sets out measurements from patent US20230108049A1, “ORAL FAST-DISPERSING DOSAGE FORM OF RIMEGEPANT” (BIOHAVEN PHARMACEUTICAL HOLDING COMPANY LTD., priority 2020, published 2023).

One data set can be described thus: Solubility in water. It counts as physicochemical. Particulars: white to off-white crystalline solid.
Data set [1] in a line: Excretion after oral [14C]-rimegepant. It counts as in vivo, human. The following applies: oral, healthy male subjects. The text has this: Following oral administration of [^14C]-rimegepant to healthy male subjects, 78% of the total radioactivity was recovered in feces and 24% in urine. Unchanged rimegepant is the major single component in excreted feces (42%) and urine (51%).

SMILES strings stand for the structures.

With `N[C@@H]1c2cccnc2[C@H](OC(=O)N2CCC(n3c(=O)[nH]c4ncccc43)CC2)CC[C@H]1c1cccc(F)c1F` [rimegepant hemisulfate, (5S,6S,9R)-5-amino-6-(2,3-difluorophenyl)-6,7,8,9-tetrahydro-5H-cyclohepta[b]pyridin-9-yl 4-(2-oxo-2,3-dihydro-1H-imidazo[4,5-b]pyridin-1-yl)-1-piperidinecarboxylate hemisulfate sesquihydrate], in “Solubility in water”, the solubility in water result is on record as “slightly soluble in water”.

With `N[C@@H]1c2cccnc2[C@H](OC(=O)N2CCC(n3c(=O)[nH]c4ncccc43)CC2)CC[C@H]1c1cccc(F)c1F` [[^14C]-rimegepant], in data set [1], the “total radioactivity recovered in feces” value came out at 78% and the “total radioactivity recovered in urine” value was found to be 24%.
